In PubChem BioAssay AID1845200 (Molecular Pharmacology Branch, DTP, NCI, 2023):
pIC50: −log10 of the molar value. “And” between values parts separate entries of the source, which are not always exact repeats. Equal entries are not always repeated. The source made the active and inactive calls. How the source made its calls: active means viability on the fitted dose curve at most 10% of control; inactive means the rest.

Tested on: ASPS-1 complex tumor spheroids, viability
Test: Anticancer human tumor ASPS-1 cell line growth inhibition;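 further: spheroids exposed to agents for 7 days after 3 days of growth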;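 on viability, T/C: 100% = DMSO vehicle treated spheroids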
Conditions: for viability, T/C: stronger effect = lower value
From the text: Multicellular complex tumor spheroid response to DNA repair inhibitors in combination with DNA-damaging drugs
This study explores the anticancer activities of DNA-damaging drugs and inhibitors of DNA damage repair, both as single agents and in combinations. Complex tumor spheroids comprised of malignant cells, endothelial cells and mesenchymal stem cells served as an in vitro model for human solid tumors. This model system incorporates physiologically relevant features and patient-derived or established malignant cell lines with clinically relevant genetic alterations from many tumor types. Twenty-six patient-derived or established malignant cell lines were evaluated representing sarcoma, melanoma, small cell lung cancer (SCLC), non-small cell lung cancer (NSCLC), as well as bladder, ovarian and pancreatic cancers. The concentration ranges selected for each drug and investigational agent were based upon clinically achievable concentrations if the clinical Cmax of the agent was known.
Compounds. The drugs and compounds olaparib (NSC753686), talazoparib (NSC767125), berzosertib (NSC777718), elimusertib (NSC800525), nedisertib (NSC802822), VX-984 (NSC792969), AZD-1390 (NSC803789), temozolomide (NSC362856), topotecan (NSC609699), trabectedin (NSC813783), staurosporine (NSC755774), and gemcitabine (NSC613327) were obtained from the National Cancer Institute (NCI) Developmental Therapeutics Program Chemical Repository. The FDA-approved anticancer drug set is available from the Developmental Therapeutics Program at https://dtp.cancer.gov/organization/dscb/obtaining/available_plates.htm. […] The stock solutions were prepared in dimethyl sulfoxide (DMSO, Sigma-Aldrich, St. Louis, MO, cat. D2650) at 400-fold the tested concentration and stored at -70 degrees C. Prior to their use, the stock solutions were diluted in fresh medium and the final DMSO concentration in the assay was 0.25% (v/v). All drugs and investigational agents were tested over a range starting from a high concentration at or near the clinical Cmax and decreasing in half-log increments. If the clinical Cmax for an agent had not been determined, the highest concentration tested was 10 microM.
Cell Lines. The patient-derived cancer cell (PDC) lines: 156681-154-R-J1-PDC, 283228-195-R-J1-PDC, 287954-098-R-J1-PDC, 292921-168-R-J2-PDC, 349418-098-R-PDC, 425362-245-T-J1-PDC, 556581-035-R-J1-PDC, and BL0293-F563-PDC were received from the NCI Patient-Derived Models Repository (PDMR, https://pdmr.cancer.gov). The established cell lines HS-SY-2 (RRID:CVCL_8719), MPNST, and SYO-1 (RRID:CVCL_7146) were obtained from the Sloan Kettering Institute. The alveolar soft parts sarcoma cell line ASPS-1 (RRID:CVCL_S738) was established at the NCI and grown from internal seed stocks. The following established cell lines were purchased from the American Type Culture Collection (ATCC, Manassas, VA): G-401 (ATCC, cat. CRL-1441, RRID:CVCL_0270), SW982 (ATCC, cat. HTB-93, RRID:CVCL_1734), VA-ES-BJ (ATCC, cat. CRL-2138, RRID:CVCL_1785), NCI-H719 (ATCC, cat. CRL-5837, RRID:CVCL_1582), NCI-H196 (ATCC, cat. CRL-5823, RRID:CVCL_1509), NCI-H841 (ATCC, cat. CRL-5845, RRID:CVCL_1595), NCI-H1618 (ATCC, cat. CRL-5879, RRID:CVCL_1480), NCI-H1876 (ATCC, cat. CRL-5902, RRID:CVCL_1503), DMS 114 (ATCC, cat. CRL-2066; RRID:CVCL_1174), NCI-H211 (ATCC, cat. CRL-5824; RRID:CVCL_1529), and SW 1271 (ATCC, cat. CRL-2177, RRID:CVCL_1716). The small cell lung cancer cell line COR-L88 was purchased from Sigma-Aldrich (cat. 92031917-1VL, RRID:CVCL_1141). The non-small cell lung cancer cell lines NCI-H226 (RRID:CVCL_1544) and NCI-H322M (RRID:CVCL_1557) were established at the NCI and grown from internal seed stocks. Pooled donor human umbilical vein endothelial cells (HUVEC, Lonza, cat. CC-2519) and human mesenchymal stem cells (hMSC, Lonza, cat. PT-2501) were purchased from Lonza (Walkersville, MD).
Cell Culture. All cells were maintained in an incubator at 37 degrees C and 5% CO2 with 95% humidity. […]

[1] = compound alone, run of 12/16/2019

CC(C)n1c(=O)n(C)c2cnc3cc(F)c(-c4ccc(OCCCN5CCCCC5)nc4)cc3c21 was tested, and the viability, T/C (compound 0.0316 µM) was 95.5% and 110% and 106%, the viability, T/C (compound 0.1 µM) was 108% (2×) and 107% and the viability, T/C (compound 0.316 µM) was 103% and 105% and 101%. For the same molecule, the viability, T/C (compound 1 µM) was 95.2% and 106% and 100%, the viability, T/C (compound 3.16 µM) was 93% and 98.2% and 95.5% and the viability, T/C (compound 10 µM) was 63.6% and 56.2% and 38.7%. The pIC50 (curve of compound) was < 5.00 and 5.10.

CC1COCCN1c1cc(-c2ccnn2C)c2ccnc(-c3ccn[nH]3)c2n1 (stereo unspecified) was tested, and the viability, T/C (compound 0.0316 µM) was 85.3% and 92.7% and 83.6%, the viability, T/C (compound 0.1 µM) was 60.3% and 70.7% and 69.8% and the viability, T/C (compound 0.316 µM) was 43.5% and 50.8% and 46.5%. For the same molecule, the viability, T/C (compound 1 µM) was 37.7% and 46% and 48.2%, the viability, T/C (compound 3.16 µM) was 42.6% and 45.1% and 48% and the viability, T/C (compound 10 µM) was 39.6% and 46.7% and 44.7%. The pIC50 (curve of compound) was 6.70 and 6.42 and 6.57.

For CC[C@@]1(O)C(=O)OCc2c1cc1n(c2=O)Cc2cc3c(CN(C)C)c(O)ccc3nc2-1, the viability, T/C (compound 0.003 µM) was 101% [middle of 10 runs], the viability, T/C (compound 0.00949 µM) was 103% [middle of 10 runs] and the viability, T/C (compound 0.03 µM) was 96.3% [middle of 10 runs]. For the same molecule, the viability, T/C (compound 0.0949 µM) was 56.3% [middle of 10 runs], the pIC50 (compound alone, run of 11/07/2019) was 6.65 and 6.80 and < 6.52 and the pIC50 [1] was < 6.52.

For CNCc1ccc(-c2cc(-c3nc(-c4ccc(S(=O)(=O)C(C)C)cc4)cnc3N)on2)cc1, the viability, T/C (compound 0.00949 µM) was 107% and 103% and 105%, the viability, T/C (compound 0.03 µM) was 102% and 113% and 112% and the viability, T/C (compound 0.0949 µM) was 97.4% and 108% and 96.5%. The viability, T/C (compound 0.3 µM) was 58.1% and 74.3% and 76.5%, the viability, T/C (compound 0.949 µM) was 40.4% and 38.1% and 45.4% and the viability, T/C (compound 3 µM) was 9.11% and 6.66% and 18%. The pIC50 (curve of compound) was 6.26 and 6.19 and 6.11.

With COc1cc(C)[nH]c(=O)c1CN1CCc2c(Cl)cc(C(OC)C3COC3)c(Cl)c2C1=O (stereo unspecified) the viability, T/C (compound 0.0316 µM) was 105% and 103% and 99%, the viability, T/C (compound 0.1 µM) was 108% and 106% and 105% and the viability, T/C (compound 0.316 µM) was 107% and 102% and 100%. The viability, T/C (compound 1 µM) was 106% and 97.9% and 96.5%, the viability, T/C (compound 3.16 µM) was 104% and 102% and 98% and the viability, T/C (compound 10 µM) was 99.3% and 104% and 97.8%. For the same molecule, the pIC50 (curve of compound) was < 5.00.

COc1cc2c(cc1O)CCNC21CSC2c3c(OC(C)=O)c(C)c4c(c3C(COC1=O)N1C(O)C3Cc5cc(C)c(OC)c(O)c5C(C21)N3C)OCO4 (stereo unspecified) was tested, and the viability, T/C (compound 30 pM) was 103% [middle of 10 runs], the viability, T/C (compound 94.9 pM) was 103% [middle of 10 runs] and the viability, T/C (compound 0.0003 µM) was 92.7% [middle of 10 runs]. The viability, T/C (compound 0.000949 µM) was 71.9% [middle of 10 runs], the viability, T/C (compound 0.003 µM) was 23% [middle of 10 runs] and the IC50 [1] was 1.63 nM [middle of 10 runs].

With COc1ccc([C@@H](O)c2cc(-c3ncnc4cc(N5CCOCC5)ccc34)c(F)cc2Cl)nn1 the viability, T/C (compound 0.0316 µM) was 108% and 103% (2×), the viability, T/C (compound 0.1 µM) was 95.8% and 109% and 111% and the viability, T/C (compound 0.316 µM) was 103% and 102% and 94.3%. The outcome (compound 1 µM) was “inactive”, the viability, T/C (compound 1 µM) was 90.4% and the viability, T/C (compound 3.16 µM) was 77.3% and 89.6% and 84.7%. For the same molecule, the viability, T/C (compound 10 µM) was 49.6% and 58.1% and 50.4% and the pIC50 (curve of compound) was 5.00 and < 5.00.

For Cc1cc(C)c(CNC(=O)c2cc(-c3ccc(CN4CCOCC4)cc3)cc3c2cnn3C2CCCC2)c(=O)[nH]1, the viability, T/C (compound 0.0316 µM) was 103% and 100% and 101%, the viability, T/C (compound 0.1 µM) was 103% (2×) and 102% and the viability, T/C (compound 0.316 µM) was 103% and 92.5% and 99.4%. The viability, T/C (compound 1 µM) was 105% and 93.1% and 101%, the viability, T/C (compound 3.16 µM) was 96.7% and 94.2% and 93.3% and the viability, T/C (compound 10 µM) was 79.3% and 80.4% and 80.8%. For the same molecule, the pIC50 (curve of compound) was < 5.00.

For Cc1sc2c(c1C)C(c1ccc(Cl)cc1)=NC(CC(=O)Nc1ccc(O)cc1)c1nnc(C)n1-2 (stereo unspecified), the viability, T/C (compound 0.00949 µM) was 102% and 110% and 107%, the viability, T/C (compound 0.03 µM) was 103% and 111% and 108% and the viability, T/C (compound 0.0949 µM) was 103% and 111% and 109%. For the same molecule, the viability, T/C (compound 0.3 µM) was 108% and 105% and 100%, the viability, T/C (compound 0.949 µM) was 97.8% and 101% and 94.3% and the viability, T/C (compound 3 µM) was 90.6% and 87.9% and 83.7%. The pIC50 (curve of compound) was < 5.52.

With Cn1ncnc1[C@H]1c2n[nH]c(=O)c3cc(F)cc(c23)N[C@@H]1c1ccc(F)cc1 the outcome (compound 0.00949 µM) was “inactive”, the viability, T/C (compound 0.00949 µM) was 96.5% and 101% and the viability, T/C (compound 0.03 µM) was 105% (2×) and 98.6%. The viability, T/C (compound 0.0949 µM) was 102% (2×) and 96.3%, the viability, T/C (compound 0.3 µM) was 102% and 95.5% and 98.4% and the viability, T/C (compound 0.949 µM) was 101% and 97.7% and 91.2%. For the same molecule, the viability, T/C (compound 3 µM) was 88.4% and 86% and 72.1% and the pIC50 (curve of compound) was < 5.52.

In the case of O=C(c1cc(Cc2n[nH]c(=O)c3ccccc23)ccc1F)N1CCN(C(=O)C2CC2)CC1, the viability, T/C (compound 0.0949 µM) was 97.9% and 107% and 106%, the viability, T/C (compound 0.3 µM) was 95% and 115% and 111% and the viability, T/C (compound 0.949 µM) was 95.6% and 107% and 108%. For the same molecule, the viability, T/C (compound 3 µM) was 101% and 108% and 102%, the viability, T/C (compound 9.49 µM) was 101% and 111% and 103% and the viability, T/C (compound 30 µM) was 89.2% and 97.1% and 60.3%. For the same molecule, the pIC50 (curve of compound) was < 4.52.

In the case of [2H]c1nc(C)nc([2H])c1-c1cc(NC[C@@H](C)c2cccc3c(C(=O)NC)ccnc23)ncn1, the viability, T/C (compound 0.0316 µM) was 107% and 101% and 102%, the outcome (compound 0.1 µM) was “inactive” and the viability, T/C (compound 0.1 µM) was 108% and 104%. For the same molecule, the outcome (compound 0.316 µM) was “inactive”, the viability, T/C (compound 0.316 µM) was 108% and 104% and the viability, T/C (compound 1 µM) was 106% and 113% and 95.1%. For the same molecule, the viability, T/C (compound 3.16 µM) was 103% and 107% and 100%, the viability, T/C (compound 10 µM) was 97.9% and 101% and 95.2% and the pIC50 (curve of compound) was < 5.00.
